# ChEMBL document CHEMBL1201862, “PubChem BioAssay data set” (2004)
# The source made the active and inactive calls.
# Columns and labels:
# [1] = Trypanosoma cruzi growth suppression in host cells – NIH3T3 host cells, beta-gal luminescence, confirmation (AID 2044); assay type: functional, cell-based;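 also: intracellular parasites grown in NIH/3T3 mouse fibroblasts as host cells; luminescent beta-galactosidase reporter signal from transgenic T. cruzi replicating inside host cells; inhibitors lower the luminescence signal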
# [2] = target: T1, Microphthalmia-associated transcription factor (Homo sapiens, UniProt O75030); assay: reducers of TRPM1 reporter luminescence, concentration series – cell-based, SK-MEL-5, cherry-picked, set 3, MITF inhibitor project, dose response (AID 493073); assay type: functional;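 also: SK-MEL-5 melanoma cells with luciferase driven by the MITF target TRPM1 promoter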
# T1 sequence (O75030 whole entry): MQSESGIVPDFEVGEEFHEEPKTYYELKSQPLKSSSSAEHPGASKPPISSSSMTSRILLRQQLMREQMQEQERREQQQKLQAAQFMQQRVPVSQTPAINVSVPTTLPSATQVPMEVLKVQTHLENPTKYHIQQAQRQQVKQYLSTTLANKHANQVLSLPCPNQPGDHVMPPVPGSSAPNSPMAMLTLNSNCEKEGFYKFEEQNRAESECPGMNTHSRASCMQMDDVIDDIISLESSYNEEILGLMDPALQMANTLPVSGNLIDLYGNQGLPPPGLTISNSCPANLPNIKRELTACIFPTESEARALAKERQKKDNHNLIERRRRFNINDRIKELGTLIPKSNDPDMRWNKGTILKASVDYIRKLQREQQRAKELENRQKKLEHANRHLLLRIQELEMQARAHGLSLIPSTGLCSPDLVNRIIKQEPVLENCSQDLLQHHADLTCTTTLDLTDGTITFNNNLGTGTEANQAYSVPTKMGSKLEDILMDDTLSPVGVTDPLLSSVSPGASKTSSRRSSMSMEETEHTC
# [3] = target: Mothers against decapentaplegic homolog 3 (Homo sapiens, UniProt P84022); assay: inhibitors of SMAD-driven TGF-beta signaling – dose response (AID 715); assay type: functional
# [4] = viability of PTEN-deleted HCT116 cells – cell-based, HCT116 PTEN knockout, dose response (AID 1047); assay type: functional;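 also: HCT116 colon tumor cells with PTEN knocked out; cells exposed to compound for 60 hours before readout; potency for loss of cell viability measured by luminescence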
# [5] = target: Dual specificity protein kinase CLK2 (Homo sapiens, UniProt P49760); assay type: functional
# Sequence of Dual specificity protein kinase CLK2 (P49760 whole entry): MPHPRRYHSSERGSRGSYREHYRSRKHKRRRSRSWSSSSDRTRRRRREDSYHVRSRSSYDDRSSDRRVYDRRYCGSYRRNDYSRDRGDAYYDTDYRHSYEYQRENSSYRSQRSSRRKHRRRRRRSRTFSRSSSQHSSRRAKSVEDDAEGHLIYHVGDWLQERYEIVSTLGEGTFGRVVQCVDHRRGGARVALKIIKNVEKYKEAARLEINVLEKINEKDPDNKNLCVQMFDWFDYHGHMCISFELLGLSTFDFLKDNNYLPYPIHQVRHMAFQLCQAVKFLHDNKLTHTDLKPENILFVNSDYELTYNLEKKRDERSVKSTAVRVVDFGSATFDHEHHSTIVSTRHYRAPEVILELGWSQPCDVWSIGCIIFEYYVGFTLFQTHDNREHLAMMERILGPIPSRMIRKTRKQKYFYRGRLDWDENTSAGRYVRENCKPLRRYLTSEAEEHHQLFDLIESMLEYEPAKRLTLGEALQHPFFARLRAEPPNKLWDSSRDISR
# [6] = target: Dual specificity mitogen-activated protein kinase kinase 1 (Homo sapiens, UniProt Q02750); assay: Navigating the Kinome. Panel member name: MAP2K1; assay type: functional
# Sequence of Dual specificity mitogen-activated protein kinase kinase 1 (Q02750 whole entry): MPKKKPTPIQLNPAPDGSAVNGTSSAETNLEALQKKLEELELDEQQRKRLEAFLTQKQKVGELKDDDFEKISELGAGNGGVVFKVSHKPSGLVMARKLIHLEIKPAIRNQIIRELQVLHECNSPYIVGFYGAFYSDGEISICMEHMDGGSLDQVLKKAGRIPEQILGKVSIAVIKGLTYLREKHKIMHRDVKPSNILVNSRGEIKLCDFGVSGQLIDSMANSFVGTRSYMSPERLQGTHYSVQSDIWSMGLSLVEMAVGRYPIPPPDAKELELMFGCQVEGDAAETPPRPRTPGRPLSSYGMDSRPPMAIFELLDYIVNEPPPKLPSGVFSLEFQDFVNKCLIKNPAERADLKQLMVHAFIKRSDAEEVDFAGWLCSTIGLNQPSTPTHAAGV
# [7] = target: Tyrosine-protein kinase receptor TYRO3 (Homo sapiens, UniProt Q06418); assay type: functional;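 also: TYRO3 value obtained as one member of a kinome-wide profiling panel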
# [8] = target: Mitogen-activated protein kinase 9 (Homo sapiens, UniProt P45984); assay type: functional;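 also: value from a kinome panel profiling assay, MAPK9 panel entry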
# Sequence of Mitogen-activated protein kinase 9 (P45984 whole entry): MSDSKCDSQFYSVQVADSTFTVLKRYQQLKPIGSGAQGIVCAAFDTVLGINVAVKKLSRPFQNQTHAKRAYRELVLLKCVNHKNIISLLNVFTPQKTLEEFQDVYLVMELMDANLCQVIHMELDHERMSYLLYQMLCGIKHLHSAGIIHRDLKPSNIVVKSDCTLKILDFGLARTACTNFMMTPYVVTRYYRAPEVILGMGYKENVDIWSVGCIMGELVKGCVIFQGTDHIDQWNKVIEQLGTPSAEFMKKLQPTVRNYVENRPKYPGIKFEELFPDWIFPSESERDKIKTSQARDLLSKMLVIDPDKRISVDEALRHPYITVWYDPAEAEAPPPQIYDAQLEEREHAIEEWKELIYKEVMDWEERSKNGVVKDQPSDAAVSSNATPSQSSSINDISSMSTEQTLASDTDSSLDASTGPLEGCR
# [9] = target: T2, Mitogen-activated protein kinase kinase kinase kinase 2 (Homo sapiens, UniProt Q12851); assay type: functional;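 also: measured as one member of a kinome-wide kinase panel, with MAP4K2 as the panel entry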
# T2 sequence (Q12851 whole entry): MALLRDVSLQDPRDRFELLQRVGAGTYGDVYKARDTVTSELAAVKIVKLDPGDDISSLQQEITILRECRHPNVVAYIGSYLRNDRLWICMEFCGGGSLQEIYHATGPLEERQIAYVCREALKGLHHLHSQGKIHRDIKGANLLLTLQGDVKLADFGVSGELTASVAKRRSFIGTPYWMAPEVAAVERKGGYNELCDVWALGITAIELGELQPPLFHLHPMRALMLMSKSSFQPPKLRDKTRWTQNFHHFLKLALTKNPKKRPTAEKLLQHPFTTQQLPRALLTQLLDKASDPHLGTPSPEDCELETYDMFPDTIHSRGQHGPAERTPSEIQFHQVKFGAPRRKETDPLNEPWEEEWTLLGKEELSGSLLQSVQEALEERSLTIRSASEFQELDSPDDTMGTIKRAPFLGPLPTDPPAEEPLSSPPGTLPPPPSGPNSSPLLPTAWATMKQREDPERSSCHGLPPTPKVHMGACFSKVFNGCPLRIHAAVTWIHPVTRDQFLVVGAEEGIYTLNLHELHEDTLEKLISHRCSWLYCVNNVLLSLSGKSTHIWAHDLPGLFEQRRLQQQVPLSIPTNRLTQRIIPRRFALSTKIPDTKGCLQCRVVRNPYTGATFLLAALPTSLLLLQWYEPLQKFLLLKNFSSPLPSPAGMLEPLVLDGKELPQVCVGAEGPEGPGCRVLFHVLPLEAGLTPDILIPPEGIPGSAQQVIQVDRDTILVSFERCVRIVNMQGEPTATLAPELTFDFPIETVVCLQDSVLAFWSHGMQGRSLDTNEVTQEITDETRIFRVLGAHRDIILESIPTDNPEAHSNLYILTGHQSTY
# [10] = target: Vascular endothelial growth factor receptor 2 (Homo sapiens, UniProt P35968); assay type: functional
# Sequence of Vascular endothelial growth factor receptor 2 (P35968 whole entry): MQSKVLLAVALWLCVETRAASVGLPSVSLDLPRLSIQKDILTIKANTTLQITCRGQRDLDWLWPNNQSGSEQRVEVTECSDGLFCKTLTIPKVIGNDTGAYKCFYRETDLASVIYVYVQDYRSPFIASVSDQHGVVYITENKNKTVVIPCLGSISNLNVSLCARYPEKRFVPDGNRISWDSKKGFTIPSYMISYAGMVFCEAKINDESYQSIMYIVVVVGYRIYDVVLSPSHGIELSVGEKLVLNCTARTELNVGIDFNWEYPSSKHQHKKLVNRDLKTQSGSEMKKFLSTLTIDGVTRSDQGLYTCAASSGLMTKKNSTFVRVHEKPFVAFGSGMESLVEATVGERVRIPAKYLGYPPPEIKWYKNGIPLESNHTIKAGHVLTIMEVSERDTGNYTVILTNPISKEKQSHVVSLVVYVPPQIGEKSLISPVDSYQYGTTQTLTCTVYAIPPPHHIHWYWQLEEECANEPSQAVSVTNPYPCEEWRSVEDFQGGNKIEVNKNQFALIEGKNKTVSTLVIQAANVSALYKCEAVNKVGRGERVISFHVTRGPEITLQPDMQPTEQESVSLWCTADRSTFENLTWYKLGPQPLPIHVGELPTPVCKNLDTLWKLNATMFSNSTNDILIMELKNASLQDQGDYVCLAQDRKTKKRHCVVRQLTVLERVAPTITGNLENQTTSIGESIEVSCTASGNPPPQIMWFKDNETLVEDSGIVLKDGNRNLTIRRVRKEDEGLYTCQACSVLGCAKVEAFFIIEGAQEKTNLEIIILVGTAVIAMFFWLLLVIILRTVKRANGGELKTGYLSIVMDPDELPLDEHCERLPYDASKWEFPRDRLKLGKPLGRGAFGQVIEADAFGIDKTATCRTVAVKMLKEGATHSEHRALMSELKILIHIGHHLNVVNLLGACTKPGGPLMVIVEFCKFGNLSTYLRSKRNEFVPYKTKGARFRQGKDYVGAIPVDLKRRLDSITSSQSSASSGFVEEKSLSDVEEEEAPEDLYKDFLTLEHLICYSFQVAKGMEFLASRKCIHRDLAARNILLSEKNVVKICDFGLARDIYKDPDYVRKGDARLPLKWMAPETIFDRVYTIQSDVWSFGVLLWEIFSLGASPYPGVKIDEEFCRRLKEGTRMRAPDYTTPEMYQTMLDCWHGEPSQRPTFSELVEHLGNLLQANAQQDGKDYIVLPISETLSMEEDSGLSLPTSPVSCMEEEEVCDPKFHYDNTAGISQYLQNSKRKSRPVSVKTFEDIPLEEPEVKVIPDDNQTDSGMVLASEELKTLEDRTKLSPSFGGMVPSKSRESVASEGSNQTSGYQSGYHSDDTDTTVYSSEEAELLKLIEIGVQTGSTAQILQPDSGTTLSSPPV
# [11] = target: Dual specificity tyrosine-phosphorylation-regulated kinase 1B (Homo sapiens, UniProt Q9Y463); assay: Navigating the Kinome. Panel member name: DYRK1B; assay type: functional
# Sequence of Dual specificity tyrosine-phosphorylation-regulated kinase 1B (Q9Y463 whole entry): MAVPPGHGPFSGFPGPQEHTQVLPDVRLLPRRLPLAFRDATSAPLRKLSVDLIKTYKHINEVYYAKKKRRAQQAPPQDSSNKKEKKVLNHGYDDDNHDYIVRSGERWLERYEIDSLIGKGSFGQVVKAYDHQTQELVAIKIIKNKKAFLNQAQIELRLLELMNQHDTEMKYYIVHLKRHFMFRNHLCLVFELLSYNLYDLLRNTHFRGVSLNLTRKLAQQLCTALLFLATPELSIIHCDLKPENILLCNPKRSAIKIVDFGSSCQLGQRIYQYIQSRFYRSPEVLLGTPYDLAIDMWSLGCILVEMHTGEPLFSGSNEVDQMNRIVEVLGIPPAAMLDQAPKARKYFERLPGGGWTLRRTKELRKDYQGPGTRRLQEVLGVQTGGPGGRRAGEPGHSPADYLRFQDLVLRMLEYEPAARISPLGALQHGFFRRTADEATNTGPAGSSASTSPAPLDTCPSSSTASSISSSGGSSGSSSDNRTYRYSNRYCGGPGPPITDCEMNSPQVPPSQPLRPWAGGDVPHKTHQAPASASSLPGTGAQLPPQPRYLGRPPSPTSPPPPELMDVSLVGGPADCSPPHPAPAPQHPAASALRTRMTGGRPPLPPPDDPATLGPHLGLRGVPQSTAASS
# [12] = target: Tyrosine-protein kinase Fyn (Homo sapiens, UniProt P06241); assay type: functional
# [13] = target: Mitogen-activated protein kinase kinase kinase kinase 4 (Homo sapiens, UniProt O95819); assay type: functional
# [14] = target: Macrophage colony-stimulating factor 1 receptor (Homo sapiens, UniProt P07333); assay type: functional;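 also: value comes from the Navigating the Kinome screening panel, CSF1R member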
# Sequence of Macrophage colony-stimulating factor 1 receptor (P07333 whole entry): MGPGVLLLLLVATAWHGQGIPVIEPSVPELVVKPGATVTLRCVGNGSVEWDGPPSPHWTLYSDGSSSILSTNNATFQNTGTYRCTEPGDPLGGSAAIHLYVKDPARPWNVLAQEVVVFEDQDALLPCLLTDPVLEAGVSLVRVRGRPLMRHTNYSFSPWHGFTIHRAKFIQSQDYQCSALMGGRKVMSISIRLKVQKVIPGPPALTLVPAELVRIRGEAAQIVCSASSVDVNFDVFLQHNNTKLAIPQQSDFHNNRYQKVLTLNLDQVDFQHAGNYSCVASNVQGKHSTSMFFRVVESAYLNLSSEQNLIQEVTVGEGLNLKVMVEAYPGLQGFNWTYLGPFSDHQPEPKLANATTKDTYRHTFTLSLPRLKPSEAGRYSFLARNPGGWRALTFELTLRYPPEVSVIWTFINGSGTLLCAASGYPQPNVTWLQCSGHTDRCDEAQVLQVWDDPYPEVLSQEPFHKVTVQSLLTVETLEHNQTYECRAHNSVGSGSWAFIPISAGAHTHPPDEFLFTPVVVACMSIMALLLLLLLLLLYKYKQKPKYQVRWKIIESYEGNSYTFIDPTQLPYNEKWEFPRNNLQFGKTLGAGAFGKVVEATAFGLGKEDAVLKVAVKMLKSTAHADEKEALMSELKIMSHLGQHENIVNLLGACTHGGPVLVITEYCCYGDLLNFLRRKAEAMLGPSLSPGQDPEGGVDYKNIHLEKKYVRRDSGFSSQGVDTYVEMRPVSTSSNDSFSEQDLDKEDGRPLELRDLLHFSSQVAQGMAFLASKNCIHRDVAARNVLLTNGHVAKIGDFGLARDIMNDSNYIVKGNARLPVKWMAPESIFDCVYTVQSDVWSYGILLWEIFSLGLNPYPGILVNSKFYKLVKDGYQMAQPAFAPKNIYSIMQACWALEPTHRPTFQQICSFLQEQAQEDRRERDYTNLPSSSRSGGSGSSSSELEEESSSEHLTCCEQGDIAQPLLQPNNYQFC
# [15] = target: Calcium/calmodulin-dependent protein kinase type II subunit alpha (Homo sapiens, UniProt Q9UQM7); assay: Navigating the Kinome. Panel member name: CAMK2A; assay type: functional
# Sequence of Calcium/calmodulin-dependent protein kinase type II subunit alpha (Q9UQM7 whole entry): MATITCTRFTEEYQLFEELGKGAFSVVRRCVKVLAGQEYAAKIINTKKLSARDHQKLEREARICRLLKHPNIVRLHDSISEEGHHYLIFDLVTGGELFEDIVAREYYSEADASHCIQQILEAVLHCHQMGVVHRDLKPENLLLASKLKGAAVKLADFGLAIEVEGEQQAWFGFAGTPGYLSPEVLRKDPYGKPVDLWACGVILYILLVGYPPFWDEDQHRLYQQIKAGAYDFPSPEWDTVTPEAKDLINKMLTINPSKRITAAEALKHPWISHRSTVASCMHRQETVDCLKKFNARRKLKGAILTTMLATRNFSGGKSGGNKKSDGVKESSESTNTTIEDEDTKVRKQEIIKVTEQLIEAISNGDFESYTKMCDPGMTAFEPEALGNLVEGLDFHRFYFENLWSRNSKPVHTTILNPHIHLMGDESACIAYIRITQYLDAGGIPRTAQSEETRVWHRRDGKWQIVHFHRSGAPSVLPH
# [16] = target: Cyclin-dependent kinase 5 (Homo sapiens, UniProt Q00535); assay type: functional;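 also: CDK5 measured as one member of a kinase profiling panel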
# Sequence of Cyclin-dependent kinase 5 (Q00535 whole entry): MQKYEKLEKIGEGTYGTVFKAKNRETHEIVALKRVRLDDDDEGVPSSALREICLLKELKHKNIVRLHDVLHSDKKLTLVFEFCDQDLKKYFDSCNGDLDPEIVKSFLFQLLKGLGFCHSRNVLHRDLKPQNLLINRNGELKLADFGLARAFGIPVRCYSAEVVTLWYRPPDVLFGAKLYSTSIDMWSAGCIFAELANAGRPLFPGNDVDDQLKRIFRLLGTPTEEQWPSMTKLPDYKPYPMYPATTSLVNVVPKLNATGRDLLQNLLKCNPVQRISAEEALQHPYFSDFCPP
# [17] = target: Serine/threonine-protein kinase Nek2 (Homo sapiens, UniProt P51955); assay type: functional
Compound,AC50 [2],EC50 [4],Ki [5],Ki [6],Ki [7],Ki [8],Ki [9],Ki [10],Ki [11],Ki [12],Ki [13],Ki [14],Ki [15],further results
CC(C)CC(=O)NC(c1cccs1)c1ccc2cccnc2c1O (centres undefined),3.71 µM (active),,,,,,,,,,,,,EC50 [1]: 489 nM (active)
CCOC(=O)c1ccc(NC2=CC(=O)C(=O)c3ccccc32)cc1,4.3 µM (active),15.5 µM (active),,,,,,,,,,,,IC50 [3]: 2.81 µM (active)
OC(CNCCC1C=Nc2ccccc21)Cn1c2ccc(Cl)cc2c2cc(Cl)ccc21 (centres undefined),,2.73 µM (active),,,,,,,,,,,,
NC1CCC(Nc2nc(Cl)cc(-c3c[nH]c4ncccc34)n2)CC1 (centres undefined),,,7.94 nM (active),20 nM (active),2.51 µM (active),3.16 µM (active),63.1 nM (active),794 nM (active),15.8 nM (active),> 6.31 µM (inactive),20 nM (active),126 nM (active),200 nM (active),pKi [5]: 8.1; pKi [6]: 7.7; pKi [8]: 5.5; pKi [9]: 7.2; pKi [10]: 6.1; pKi [11]: 7.8; pKi [13]: 7.7; pKi [14]: 6.9; pKi [15]: 6.7
O=C(O)C1CN(Cc2ccc(OCc3ccccc3)cc2Cl)C1,,,> 3980 nM (inactive),> 3160 nM (inactive),> 3.16 µM (inactive),> 3.98 µM (inactive),> 2510 nM (inactive),> 2510 nM (inactive),> 2510 nM (inactive),> 6.31 µM (inactive),> 5010 nM (inactive),> 2510 nM (inactive),> 3980 nM (inactive),Ki [16]: > 3.16 µM (inactive); Ki [17]: > 3.16 µM (inactive)
